Data: US20230247994A1, “HETEROCYCLENE DERIVATIVES AS PEST CONTROL AGENTS” (Bayer Aktiengesellschaft, priority 2020, published 2023)

Legend:
Type in all cases: in vivo
Myzus persicae [1] = test: Myzus persicae spray test (Chinese cabbage leaf disks); conditions: application rate 100 g/ha, after 5 days, 100% = all aphids killed
From the text: (§1) Myzus persicae—Spray Test Solvent: 78 parts by weight of acetone • • 1.5 parts by weight of dimethylformamide Emulsifier: alkylaryl polyglycol ether An appropriate active ingredient formulation is produced by dissolving 1 part by weight of active ingredient with the stated parts by weight of solvent and making the solution up to the desired concentration with water containing an emulsifier concentration of 1000 ppm. Further test concentrations are produced by diluting the formulation with emulsifier-containing water. Leaf disks of Chinese cabbage (Brassica pekinensis) infested by all stages of the green peach aphid (Myzus persicae) are sprayed with an active ingredient formulation of the desired concentration. After 5 days, efficacy in % is determined. 100% means that all of the aphids have been killed; 0% means that none of the aphids have been killed.

Meloidogyne incognita = Meloidogyne incognita test (lettuce, gall formation); conditions: application rate 20 ppm, after 14 days, 100% = no galls found
From the text: Meloidogyne Incognita Test Solvent: 125.0 parts by weight of acetone An appropriate active ingredient formulation is produced by mixing 1 part by weight of active ingredient with the stated amount of solvent and diluting the concentrate to the desired concentration with water. Vessels are filled with sand, active ingredient solution, an egg/larvae suspension of the southern root-knot nematode (Meloidogyne incognita) and lettuce seeds. The lettuce seeds germinate and the plants develop. The galls develop on the roots. After 14 days, the nematicidal efficacy in % is determined by the formation of galls. 100% means that no galls were found; 0% means that the number of galls on the treated plants corresponds to the untreated control.

Diabrotica balteata = Diabrotica balteata spray test (germinated wheat grains); conditions: 168 h, application rate 100 g/ha (=32 μg/cavity), after 7 days, beetle larvae on wheat, 100% = all wheat plants grown as in untreated, uninfected control, read-out: efficacy in %
From the text: Diabrotica Balteata—Spray Test Solvent: 78 parts by weight of acetone • • 1.5 parts by weight of dimethylformamide Emulsifier: alkylaryl polyglycol ether An appropriate active ingredient formulation is produced by dissolving 1 part by weight of active ingredient with the stated parts by weight of solvent and making the solution up to the desired concentration with water containing an emulsifier concentration of 1000 ppm. Further test concentrations are produced by diluting the formulation with emulsifier-containing water. Pre-swollen wheat grains (Triticum aestivum) are incubated in a multiwell plate filled with agar and a little water for one day (5 seed grains per cavity). The germinated wheat grains are sprayed with an active ingredient formulation of the desired concentration. Subsequently, each cavity is infected with 10-20 beetle larvae of Diabrotica balteata. After 7 days, efficacy in % is determined. 100% means that all wheat plants have grown as in the untreated, uninfected control; 0% means that no wheat plant has grown.

Spodoptera frugiperda = Spodoptera frugiperda spray test (maize leaf disks); conditions: foliar, 168 h, caterpillars, after 7 days, 100% = all caterpillars killed, read-out: efficacy in %; for pest or weed control at 100 g/ha: application rate 100 g/ha
From the text: Spodoptera frugiuerda—Spray Test
Solvent: 78.0 parts by weight of acetone • • 1.5 parts by weight of dimethylformamide
Emulsifier: alkylaryl polyglycol ether
An appropriate active ingredient formulation is produced by dissolving 1 part by weight of active ingredient with the stated parts by weight of solvent and making the solution up to the desired concentration with water containing an emulsifier concentration of 1000 ppm. Further test concentrations are produced by diluting the formulation with emulsifier-containing water.
Leaf disks of maize (Zea mays) are sprayed with an active ingredient formulation of the desired concentration and, after drying, populated with caterpillars of the fall armyworm (Spodopterafrugiperda).
After 7 days, efficacy in % is determined. 100% means that all of the caterpillars have been killed; 0% means that none of the caterpillars have been killed.

Nezara viridula = Nezara viridula spray test (barley plants); conditions: 96 h, application rate 500 g/ha, larvae, after 4 days, 100% = all shield bugs killed, read-out: efficacy in %
From the text: as §1, with “Nezara viridula—Spray Test” for “Myzus persicae—Spray Test”, “Solvent: 78.0” for “Solvent: 78”, “water. Barley plants (Hordeum vulgare)” for “water. Leaf disks of Chinese cabbage (Brassica pekinensis) infested by all stages of the green peach aphid (Myzus persicae)”, “desired concentration and are infected with larvae of the Southern green shield bug (Nezara viridula).” for “desired concentration.”, “After 4” for “After 5”, “the shield bugs” for “the aphids”

Myzus persicae [2] = test: Myzus persicae oral test; conditions: application rate 20 ppm, after 5 days, 100% = all aphids killed
Experimental: Myzus persicae—Oral Test Solvent: 100 parts by weight of acetone An appropriate active ingredient formulation is produced by dissolving 1 part by weight of active ingredient with the specified parts by weight of solvent and making the solution up to the desired concentration with water. 50 μl of the active ingredient formulation is transferred into microtiter plates and made up to a final volume of 200 μl with 150 μl of IPL41 insect medium (33%+15% sugar). Subsequently, the plates are sealed with parafilm, which a mixed population of green peach aphids (Myzus persicae) within a second microtiter plate is able to puncture and imbibe the solution. After 5 days, efficacy in % is determined. 100% means that all of the aphids have been killed; 0% means that none of the aphids have been killed.

Myzus persicae [3] = test: Myzus persicae spray test (bell pepper plants); conditions: application rate 20 ppm, after 6 days, 100% = all aphids killed
From the text: Myzus persicae—spray test Solvent: 14 parts by weight of dimethylformamide Emulsifier: alkylaryl polyglycol ether An appropriate active ingredient formulation is produced by dissolving 1 part by weight of active ingredient with the stated parts by weight of solvent and making the solution up to the desired concentration with water containing an emulsifier concentration of 1000 ppm. Further test concentrations are produced by diluting the formulation with emulsifier-containing water. If the addition of ammonium salts or/and penetration enhancers is required, these are each added in a concentration of 1000 ppm to the formulation solution. Bell pepper plants (Capsicum annuum) severely infested with the green peach aphid (Myzus persicae) are treated by spraying with the active ingredient formulation in the desired concentration. After 6 days, the kill in % is determined. 100% means that all of the aphids have been killed; 0% means that none of the aphids have been killed.

Nilaparvata lugens = Nilaparvata lugens test (rice plants); conditions: application rate 500 g/ha, spray, after 4 days, 100% = all planthoppers killed
From the text: Nilaparvata lugens Test Solvent: 78.0 parts by weight of acetone • • 1.5 parts by weight of dimethylformamide Emulsifier: alkylaryl polyglycol ether An appropriate active ingredient formulation is produced by dissolving 1 part by weight of active ingredient with the stated parts by weight of solvent and making the solution up to the desired concentration with water containing an emulsifier concentration of 1000 ppm. Further test concentrations are produced by diluting the formulation with emulsifier-containing water. Rice plants (Oryza sativa) are sprayed with the active ingredient formulation of the desired concentration and then infected with the brown planthopper (Nilaparvata lugens). After 4 days, efficacy in % is determined. 100% means that all of the planthoppers have been killed; 0% means that none of the planthoppers have been killed.

CCS(=N)(=O)c1c(-c2nc3cc4c(cc3n2C)OC(F)(F)C(F)(F)O4)nc(-c2ccc(Cl)cc2)n1C (racemic) [Example I-34, rac-2-[2-(4-Chlorophenyl)-5-(ethylsulfonimidoyl)-1-methyl-1H-imidazol-4-yl]-6,6,7,7-tetrafluoro-1-methyl-6,7-dihydro-1H-[1,4]dioxino[2,3-f]benzimidazole]
efficacy in % (Myzus persicae [1]): 90% | nematicidal efficacy in % (formation of galls) (Meloidogyne incognita): 90% | pest or weed control at 100 g/ha (Diabrotica balteata): 100% | pest or weed control at 100 g/ha (Spodoptera frugiperda): 100%

CCS(=O)(=O)c1c(-c2nc3cc4c(cc3n2C)OC(F)(F)C(F)(F)O4)nc(-c2ccc(Cl)cc2)n1C [Example I-4, 2-[2-(4-Chlorophenyl)-5-(ethylsulfonyl)-1-methyl-1H-imidazol-4-yl]-6,6,7,7-tetrafluoro-1-methyl-6,7-dihydro-1H-[1,4]dioxino[2,3-f]benzimidazole]
nematicidal efficacy in % (formation of galls) (Meloidogyne incognita): 90% | pest or weed control at 100 g/ha (Diabrotica balteata): 80% | pest or weed control at 100 g/ha (Spodoptera frugiperda): 100%

CCS(=O)(=O)c1c(-c2nc3cc4c(cc3n2C)OC(F)(F)C(F)(F)O4)nc(-c2ccc(C3(C#N)CC3)cc2)n1C [Example I-6, 1-{4-[5-(Ethylsulfonyl)-1-methyl-4-(6,6,7,7-tetrafluoro-1-methyl-6,7-dihydro-1H-[1,4]dioxino[2,3-f]benzimidazol-2-yl)-1H-imidazol-2-yl]phenyl}cyclopropanecarbonitrile]
nematicidal efficacy in % (formation of galls) (Meloidogyne incognita): 100% | pest or weed control at 500 g/ha (Nezara viridula): 100% | pest or weed control at 100 g/ha (Diabrotica balteata): 100% | pest or weed control at 100 g/ha (Spodoptera frugiperda): 100%

CCS(=O)(=O)c1c(-c2nc3cc4c(cc3[nH]2)OC(F)(F)C(F)(F)O4)nc(C2CC2)n1C [Example I-8, 2-[2-Cyclopropyl-5-(ethylsulfonyl)-1-methyl-1H-imidazol-4-yl]-6,6,7,7-tetrafluoro-6,7-dihydro-1H-[1,4]dioxino[2,3-f]benzimidazole]
nematicidal efficacy in % (formation of galls) (Meloidogyne incognita): 90% | efficacy in % (Myzus persicae [2]): 100% | pest or weed control at 100 g/ha (Diabrotica balteata): 100% | pest or weed control at 500 g/ha (Spodoptera frugiperda; application rate 500 g/ha): 100%

CCS(=O)(=O)c1c(-c2nc3cc4c(cc3n2C)OC(F)(F)C(F)(F)O4)nc(C2CC2)n1C [Example I-9, 2-[2-Cyclopropyl-5-(ethylsulfonyl)-1-methyl-1H-imidazol-4-yl]-6,6,7,7-tetrafluoro-1-methyl-6,7-dihydro-1H-[1,4]dioxino[2,3-f]benzimidazole]
kill in % (efficacy) (Myzus persicae [3]): 99% | pest or weed control at 100 g/ha (Diabrotica balteata): 100% | pest or weed control at 100 g/ha (Spodoptera frugiperda): 83%

CCS(=O)(=O)c1c(-c2nc3cc4c(cc3n2C)OC(F)(F)C(F)(F)O4)nc(-c2ccccc2)n1C [Example I-16, 2-[5-(Ethylsulfonyl)-1-methyl-2-phenyl-1H-imidazol-4-yl]-6,6,7,7-tetrafluoro-1-methyl-6,7-dihydro-1H-[1,4]dioxino[2,3-f]benzimidazole]
efficacy in % (Myzus persicae [1]): 90% | pest or weed control at 500 g/ha (Nezara viridula): 100% | pest or weed control at 100 g/ha (Diabrotica balteata): 100% | pest or weed control at 100 g/ha (Spodoptera frugiperda): 100%

CCS(=O)(=O)c1c(-c2nc3cc4c(cc3n2C)OC(F)(F)C(F)(F)O4)nc(-c2cccc(Cl)n2)n1C [Example I-21, 2-[2-(6-Chloropyridin-2-yl)-5-(ethylsulfonyl)-1-methyl-1H-imidazol-4-yl]-6,6,7,7-tetrafluoro-1-methyl-6,7-dihydro-1H-[1,4]dioxino[2,3-f]benzimidazole]
pest or weed control at 500 g/ha (Nezara viridula): 100% | pest or weed control at 100 g/ha (Diabrotica balteata): 100% | efficacy in % (Nilaparvata lugens): 90% | pest or weed control at 100 g/ha (Spodoptera frugiperda): 100%

CCS(=O)(=O)c1c(-c2nc3cc4c(cc3n2C)OC(F)(F)C(F)(F)O4)nc(-c2cccc(C3(C#N)CC3)n2)n1C [Example I-28, 1-{6-[5-(Ethylsulfonyl)-1-methyl-4-(6,6,7,7-tetrafluoro-1-methyl-6,7-dihydro-1H-[1,4]dioxino[2,3-f]benzimidazol-2-yl)-1H-imidazol-2-yl]pyridin-2-yl}cyclopropanecarbonitrile]
pest or weed control at 500 g/ha (Nezara viridula): 100% | efficacy in % (Nilaparvata lugens): 100% | pest or weed control at 100 g/ha (Spodoptera frugiperda): 100%

CCS(=O)(=O)c1c(-c2nc3cc4c(cc3n2C)OC(F)(F)C(F)(F)O4)nc(-c2cccc(Br)n2)n1C [Example I-30, 2-[2-(6-Bromopyridin-2-yl)-5-(ethylsulfonyl)-1-methyl-1H-imidazol-4-yl]-6,6,7,7-tetrafluoro-1-methyl-6,7-dihydro-1H-[1,4]dioxino[2,3-f]benzimidazole]
pest or weed control at 500 g/ha (Nezara viridula): 100% | pest or weed control at 100 g/ha (Diabrotica balteata): 100% | efficacy in % (Nilaparvata lugens): 100% | pest or weed control at 100 g/ha (Spodoptera frugiperda): 100%

CCS(=N)(=O)c1c(-c2nc3cc4c(cc3n2C)OC(F)(F)C(F)(F)O4)nc(-c2ccc(C(F)(F)F)cc2)n1C (centres unmarked) [Example I-37]
nematicidal efficacy in % (formation of galls) (Meloidogyne incognita): 90% | pest or weed control at 100 g/ha (Diabrotica balteata): 80% | pest or weed control at 100 g/ha (Spodoptera frugiperda): 100%

CCS(=N)(=O)c1c(-c2nc3cc4c(cc3n2C)OC(F)(F)C(F)(F)O4)nc(-c2ccc(F)cc2)n1C (centres unmarked) [Example I-38]
efficacy in % (Myzus persicae [1]): 90% | nematicidal efficacy in % (formation of galls) (Meloidogyne incognita): 100% | pest or weed control at 500 g/ha (Nezara viridula): 90% | pest or weed control at 100 g/ha (Diabrotica balteata): 100% | pest or weed control at 100 g/ha (Spodoptera frugiperda): 100%
